Measured values published in the supplement of paper PMC11451515.

System: P12-Ichikawa
Experiment: cell viability relative to DMSO control; higher = less cytotoxic
Settings: 48 h
Summary of the method: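 Cells were incubated for 48 h at 37°C before CellTiter-Glo One luminescence was read. The cells were NOMO1 or SEM (500 cells/well) or P12-Ichikawa (1000 cells/well) leukemia cells, adapted for at least four passages in each medium and seeded in 1536-well plates (5 μl). Dosing used library compounds in DMSO applied by pin over 11 threefold points, 47 μM to 0.79 nM. Viability is the per-plate percentage of DMSO wells, with cell-free wells as background.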

[1] = HPLM + 10% dialyzed FBS, 0.000781 µM
[2] = HPLM + 10% dialyzed FBS, 0.00234 µM
[3] = HPLM + 10% dialyzed FBS, 0.00702 µM
[4] = HPLM + 10% dialyzed FBS, 0.0211 µM
[5] = HPLM + 10% dialyzed FBS, 0.0632 µM
[6] = HPLM + 10% dialyzed FBS, 0.19 µM
[7] = HPLM + 10% dialyzed FBS, 0.569 µM
[8] = HPLM + 10% dialyzed FBS, 1.71 µM
[9] = HPLM + 10% dialyzed FBS, 5.12 µM
[10] = HPLM + 10% dialyzed FBS, 15.4 µM
[11] = HPLM + 10% dialyzed FBS, 46.1 µM
[12] = RPMI 5 mM glucose + 10% FBS, 0.000781 µM
[13] = RPMI 5 mM glucose + 10% FBS, 0.00234 µM
[14] = RPMI 5 mM glucose + 10% FBS, 0.00702 µM
[15] = RPMI 5 mM glucose + 10% FBS, 0.0211 µM
[16] = RPMI 5 mM glucose + 10% FBS, 0.0632 µM
[17] = RPMI 5 mM glucose + 10% FBS, 0.19 µM
[18] = RPMI 5 mM glucose + 10% FBS, 0.569 µM
[19] = RPMI 5 mM glucose + 10% FBS, 1.71 µM
[20] = RPMI 5 mM glucose + 10% FBS, 5.12 µM
[21] = RPMI 5 mM glucose + 10% FBS, 15.4 µM
[22] = RPMI 5 mM glucose + 10% FBS, 46.1 µM
[23] = RPMI 5 mM glucose + 10% dialyzed FBS, 0.000781 µM
[24] = RPMI 5 mM glucose + 10% dialyzed FBS, 0.00234 µM
[25] = RPMI 5 mM glucose + 10% dialyzed FBS, 0.00702 µM
[26] = RPMI 5 mM glucose + 10% dialyzed FBS, 0.0211 µM
[27] = RPMI 5 mM glucose + 10% dialyzed FBS, 0.0632 µM
[28] = RPMI 5 mM glucose + 10% dialyzed FBS, 0.19 µM
[29] = RPMI 5 mM glucose + 10% dialyzed FBS, 0.569 µM
[30] = RPMI 5 mM glucose + 10% dialyzed FBS, 1.71 µM
[31] = RPMI 5 mM glucose + 10% dialyzed FBS, 5.12 µM
[32] = RPMI 5 mM glucose + 10% dialyzed FBS, 15.4 µM
[33] = RPMI 5 mM glucose + 10% dialyzed FBS, 46.1 µM

SMILES: O=S(=O)([O-])CCS.[Na+]
- cell viability [1]: 109%
- cell viability [2]: 122%
- cell viability [3]: 125%
- cell viability [4]: 119%
- cell viability [5]: 127%
- cell viability [6]: 126%
- cell viability [7]: 126%
- cell viability [8]: 129%
- cell viability [9]: 30.8%
- cell viability [10]: 18.1%
- cell viability [11]: 15.3%
- cell viability [12]: 100%
- cell viability [13]: 114%
- cell viability [14]: 116%
- cell viability [15]: 118%
- cell viability [16]: 132%
- cell viability [17]: 121%
- cell viability [18]: 136%
- cell viability [19]: 134%
- cell viability [20]: 37%
- cell viability [21]: 18.5%
- cell viability [22]: 16.7%
- cell viability [23]: 114%
- cell viability [24]: 121%
- cell viability [25]: 121%
- cell viability [26]: 120%
- cell viability [27]: 130%
- cell viability [28]: 131%
- cell viability [29]: 135%
- cell viability [30]: 139%
- cell viability [31]: 80.8%
- cell viability [32]: 43.2%
- cell viability [33]: 20.1%

SMILES: O=C(Nc1c[nH]nc1-c1nc2cc(CN3CCOCC3)ccc2[nH]1)NC1CC1
- cell viability [1]: 93.4%
- cell viability [2]: 101%
- cell viability [3]: 101%
- cell viability [4]: 97.6%
- cell viability [5]: 53.8%
- cell viability [6]: 12.7%
- cell viability [7]: 23.9%
- cell viability [8]: 38.5%
- cell viability [9]: 51.6%
- cell viability [10]: 36.5%
- cell viability [11]: 19.3%
- cell viability [12]: 97%
- cell viability [13]: 103%
- cell viability [14]: 101%
- cell viability [15]: 99.8%
- cell viability [16]: 59%
- cell viability [17]: 16%
- cell viability [18]: 38%
- cell viability [19]: 47.3%
- cell viability [20]: 45.1%
- cell viability [21]: 38.6%
- cell viability [22]: 14.1%
- cell viability [23]: 99%
- cell viability [24]: 98.6%
- cell viability [25]: 91.5%
- cell viability [26]: 102%
- cell viability [27]: 65.2%
- cell viability [28]: 24.8%
- cell viability [29]: 45.8%
- cell viability [30]: 58.5%
- cell viability [31]: 60.2%
- cell viability [32]: 46.5%
- cell viability [33]: 14.2%

SMILES: CC(C)=CCC/C(C)=C/CC/C(C)=C/CC/C(C)=C/CC/C(C)=C/CC/C(C)=C/CC/C(C)=C/CC/C(C)=C/CC/C(C)=C/CO
- cell viability [1]: 107%
- cell viability [2]: 109%
- cell viability [3]: 108%
- cell viability [4]: 112%
- cell viability [5]: 116%
- cell viability [6]: 109%
- cell viability [7]: 109%
- cell viability [8]: 108%
- cell viability [9]: 104%
- cell viability [10]: 93.4%
- cell viability [11]: 106%
- cell viability [12]: 105%
- cell viability [13]: 103%
- cell viability [14]: 115%
- cell viability [15]: 103%
- cell viability [16]: 108%
- cell viability [17]: 98.7%
- cell viability [18]: 105%
- cell viability [19]: 97.1%
- cell viability [20]: 91.3%
- cell viability [21]: 87.1%
- cell viability [22]: 96.1%
- cell viability [23]: 98.3%
- cell viability [24]: 100%
- cell viability [25]: 92.7%
- cell viability [26]: 99.6%
- cell viability [27]: 103%
- cell viability [28]: 102%
- cell viability [29]: 106%
- cell viability [30]: 97.3%
- cell viability [31]: 87.9%
- cell viability [32]: 95.9%
- cell viability [33]: 90.3%

SMILES: Cc1ccc([N+](=O)[O-])cc1[S+](=O)([O-])N(C)/N=C/c1cnc2ccc(Br)cn12
- cell viability [1]: 120%
- cell viability [2]: 110%
- cell viability [3]: 113%
- cell viability [4]: 118%
- cell viability [5]: 108%
- cell viability [6]: 50.1%
- cell viability [7]: 20.2%
- cell viability [8]: 7.63%
- cell viability [9]: 9.25%
- cell viability [10]: 9.2%
- cell viability [11]: 4.27%
- cell viability [12]: 114%
- cell viability [13]: 106%
- cell viability [14]: 112%
- cell viability [15]: 113%
- cell viability [16]: 95.6%
- cell viability [17]: 40.9%
- cell viability [18]: 15.2%
- cell viability [19]: 5.49%
- cell viability [20]: 6.55%
- cell viability [21]: 8.88%
- cell viability [22]: 3.76%
- cell viability [23]: 119%
- cell viability [24]: 122%
- cell viability [25]: 111%
- cell viability [26]: 115%
- cell viability [27]: 91.3%
- cell viability [28]: 51%
- cell viability [29]: 24.6%
- cell viability [30]: 9.55%
- cell viability [31]: 10.3%
- cell viability [32]: 12.4%
- cell viability [33]: 5.41%

SMILES: NC(=O)Nc1sc(-c2ccc(F)cc2)cc1C(N)=O
- cell viability [1]: 113%
- cell viability [2]: 115%
- cell viability [3]: 116%
- cell viability [4]: 108%
- cell viability [5]: 114%
- cell viability [6]: 111%
- cell viability [7]: 104%
- cell viability [8]: 105%
- cell viability [9]: 83.4%
- cell viability [10]: 67.3%
- cell viability [11]: 24.3%
- cell viability [12]: 113%
- cell viability [13]: 114%
- cell viability [14]: 111%
- cell viability [15]: 110%
- cell viability [16]: 105%
- cell viability [17]: 119%
- cell viability [18]: 106%
- cell viability [19]: 106%
- cell viability [20]: 83.9%
- cell viability [21]: 64.6%
- cell viability [22]: 22.1%
- cell viability [23]: 118%
- cell viability [24]: 119%
- cell viability [25]: 117%
- cell viability [26]: 110%
- cell viability [27]: 115%
- cell viability [28]: 112%
- cell viability [29]: 110%
- cell viability [30]: 97.3%
- cell viability [31]: 82.4%
- cell viability [32]: 70.2%
- cell viability [33]: 27.3%

SMILES: C[C@H]1C[C@H]2[C@@H]3CC[C@](O)(C(=O)CO)[C@@]3(C)C[C@H](O)[C@@H]2[C@@]\4(C)/C=C\C(=O)\C=C14
- cell viability [1]: 96.9%
- cell viability [2]: 97.4%
- cell viability [3]: 96.9%
- cell viability [4]: 91.7%
- cell viability [5]: 98.7%
- cell viability [6]: 88.1%
- cell viability [7]: 64.1%
- cell viability [8]: 64.9%
- cell viability [9]: 57.3%
- cell viability [10]: 57.6%
- cell viability [11]: 56.9%
- cell viability [12]: 91.2%
- cell viability [13]: 96.3%
- cell viability [14]: 95.4%
- cell viability [15]: 96.8%
- cell viability [16]: 78.5%
- cell viability [17]: 80%
- cell viability [18]: 55.2%
- cell viability [19]: 50.4%
- cell viability [20]: 47.6%
- cell viability [21]: 48.2%
- cell viability [22]: 45%
- cell viability [23]: 85.3%
- cell viability [24]: 88.2%
- cell viability [25]: 84.1%
- cell viability [26]: 93.5%
- cell viability [27]: 88.2%
- cell viability [28]: 74.2%
- cell viability [29]: 53.3%
- cell viability [30]: 40.6%
- cell viability [31]: 40.6%
- cell viability [32]: 38.6%
- cell viability [33]: 34.9%

SMILES: C[C@@H]1CCN(C(=O)CC#N)C[C@@H]1N(C)c1ncnc2[nH]ccc12
- cell viability [1]: 97.1%
- cell viability [2]: 87.1%
- cell viability [3]: 82.4%
- cell viability [4]: 91.3%
- cell viability [5]: 86.7%
- cell viability [6]: 88.5%
- cell viability [7]: 86.2%
- cell viability [8]: 87.7%
- cell viability [9]: 77.5%
- cell viability [10]: 84%
- cell viability [11]: 78.6%
- cell viability [12]: 81.9%
- cell viability [13]: 85.6%
- cell viability [14]: 83.6%
- cell viability [15]: 86.3%
- cell viability [16]: 95.5%
- cell viability [17]: 85.2%
- cell viability [18]: 92.4%
- cell viability [19]: 88.2%
- cell viability [20]: 87.6%
- cell viability [21]: 82.1%
- cell viability [22]: 81.9%
- cell viability [23]: 81.9%
- cell viability [24]: 80.6%
- cell viability [25]: 84.7%
- cell viability [26]: 81.8%
- cell viability [27]: 79.4%
- cell viability [28]: 79.4%
- cell viability [29]: 78.7%
- cell viability [30]: 76.4%
- cell viability [31]: 78.2%
- cell viability [32]: 72.1%
- cell viability [33]: 73.8%

SMILES: CN(C)c1ccc2nc3ccc(N(C)C)cc3[s+]c2c1
- cell viability [1]: 99.5%
- cell viability [2]: 105%
- cell viability [3]: 109%
- cell viability [4]: 105%
- cell viability [5]: 109%
- cell viability [6]: 113%
- cell viability [7]: 111%
- cell viability [8]: 102%
- cell viability [9]: 59.7%
- cell viability [10]: 10.9%
- cell viability [11]: 3.04%
- cell viability [12]: 95.6%
- cell viability [13]: 106%
- cell viability [14]: 96.7%
- cell viability [15]: 109%
- cell viability [16]: 110%
- cell viability [17]: 124%
- cell viability [18]: 115%
- cell viability [19]: 98.5%
- cell viability [20]: 60.3%
- cell viability [21]: 8%
- cell viability [22]: 2.12%
- cell viability [23]: 91.4%
- cell viability [24]: 106%
- cell viability [25]: 98.2%
- cell viability [26]: 96.4%
- cell viability [27]: 104%
- cell viability [28]: 116%
- cell viability [29]: 114%
- cell viability [30]: 94.9%
- cell viability [31]: 71.3%
- cell viability [32]: 12.8%
- cell viability [33]: 2.16%
